From patent US10344024B2, “Compounds as ROR gamma modulators” (Glenmark Pharmaceuticals S.A., priority 2015, dated 2019)

Molecular target: T1, GST-tagged ROR gamma ligand binding domain (LBD) (Homo sapiens, UniProt P51449)
T1 construct: purchased Invitrogen
T1 sequence (P51449 269-508 limits assumed): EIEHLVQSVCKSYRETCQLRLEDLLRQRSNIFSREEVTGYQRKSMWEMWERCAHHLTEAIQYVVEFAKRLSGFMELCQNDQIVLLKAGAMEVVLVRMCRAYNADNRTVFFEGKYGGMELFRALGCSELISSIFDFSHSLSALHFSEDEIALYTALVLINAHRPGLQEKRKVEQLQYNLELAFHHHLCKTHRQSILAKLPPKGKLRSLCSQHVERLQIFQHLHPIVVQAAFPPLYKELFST
Experiment: TR-FRET assay for ROR gamma (LanthaScreen co-activator peptide recruitment)
Format: biochemical
Conditions: for inhibition at 1 µM: compound concentration 1 μM; for inhibition at 1 µM / inhibition at 10 µM: TR-FRET ratio 520/495, percent of control; for inhibition at 10 µM: compound concentration 10 μM; for IC50: from dose response curve, nonlinear regression, read-out: IC50 range
Method in brief: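 Antagonist-mode co-activator recruitment: 10 nM GST-RORγ LBD with compound (4% DMSO final) in 25 mM HEPES pH 7.4, 100 mM NaCl, 5 mM DTT, 0.01% BSA, 1 h at 22° C.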

`CCC(F)(F)c1ccc(CC(=O)Nc2ccc(-c3nccnc3N3CCN(C(=O)C4CC4)CC3)cc2)cc1` [Example 96, N-(4-(3-(4-(Cyclopropanecarbonyl)piperazin-1-yl)pyrazin-2-yl)phenyl)-2-(4-(1,1-difluoropropyl)phenyl)acetamide] showed an inhibition at 1 µM of 47.7% and an inhibition at 10 µM of 77.2%.
`CCC(F)(F)c1ccc(CC(=O)Nc2ccc(-c3nccnc3NC(CO)c3ccccc3)cc2)cc1` (stereo not shown) [Example 97, 2-(4-(1,1-Difluoropropyl)phenyl)-N-(4-(3-((2-hydroxy-1-phenylethyl)amino)pyrazin-2-yl)phenyl)acetamide] gave an inhibition at 1 µM of 22.5% and an inhibition at 10 µM of 46.2%.
`Cc1ccc([C@@H](C)Oc2nccnc2-c2ccc(NC(=O)Cc3ccc(C(F)(F)C(C)O)cc3)cc2)c(C)c1` (stereo partly drawn) [Example 98, 2-(4-(1,1-Difluoro-2-hydroxypropyl)phenyl)-N-(4-(3-((R)-1-(2,4-dimethylphenyl)ethoxy)pyrazin-2-yl)phenyl)acetamide] was tested, and the inhibition at 1 µM was 89.5%, the inhibition at 10 µM was 89% and the IC50 was under 50 nM.
`CCC(F)(F)c1ccc(CC(=O)Nc2ccc(-c3nccnc3N3CCN(C4COC4)CC3)cc2)cc1` [Example 99, 2-(4-(1,1-Difluoropropyl)phenyl)-N-(4-(3-(4-(oxetan-3-yl)piperazin-1-yl)pyrazin-2-yl)phenyl)acetamide] showed an inhibition at 1 µM of 79.2%, an inhibition at 10 µM of 91.9% and an IC50 of 50 to 100 nM.
